Experimental data reported in US20200216463A1, “THAILANSTATIN ANALOGS” (priority 2017, published 2020).

What was measured:
HCT 116 cells = assay: In vitro cytotoxicity, CellTiter-Glo, 72 h (Example 11); type: cell-based; conditions: Homo sapiens, HCT-116, 72 h
Experimental: Alternatively, the in vitro cytotoxicity of the compounds of the invention may be measured as described in this example. 180 μl of HCT 116 cells (ATCC, Cat # CCL-247) in McCoy's 5a Medium Modified (Sigma-Aldrich), St. Louis, Mo.)+10% fetal bovine serum were seeded at a density of 5,000 cells/well in a white opaque 96-well plate and incubated for 24 hours at […] in a 5% CO2 incubator. Twenty-four hours post cell seeding, 20 μl of 10× test compounds were diluted such that the final concentrations of the test compounds were in μM concentration. Half log dilutions were used, starting from 10 μM through 0.0001 μM. Puromycin and untreated cells were used as […]. The cells were incubated with the compounds for 72 hours at […] in a 5% CO2 incubator. After 72 hrs, 100 μl/well of CellTiter-Glo® Luminescent Cell Viability Assay reagent (Promega, Inc., Madison, Wis.; Cat # G7573) was added to the plates and incubated at room temperature for 30 minutes. The luminescence signals were captured using EnVision 2105 Multimode Plate Reader (PerkinElmer, Waltham, Mass.). The data were analyzed using non-linear regression curve fit (sigmoidal dose response) in GraphPad Prism software (GraphPad Software, La Jolla, Calif.) by plotting the concentration of drug on the X-axis and the mean % inhibition values on the Y-axis.

PANC 05.04 = assay: In vitro cytotoxicity on pancreatic cancer cell line (Example 12); type: cell-based, human
Experimental: (§1) Various cancer cell lines were obtained from the American Type Culture Collection (ATCC)). The cells were cultured in a humidified 5% CO2 incubator in a media consisting of RPMI 1640, L-glutamine, and 10% FBS. The cells were passaged as needed using standard tissue culture techniques. The cells were harvested and plated out into 96-well tissue culture treated plates at a density of 5000 cells per well. After allowing the cells to equilibrate for ˜24 hr in a humidified 5% CO2 incubator, the cells were treated with the test compounds at the indicated concentrations. The cells were exposed to the test compounds for three days with no media change. After the treatment period, CellTiter-Glo) Luminescent Cell Viability Assay reagent solution (Promega, Inc., Madison, Wis.; Cat. # G7573) was introduced to each well. The Cell TiterGlo-containing plates were then read on a SpectroMax® iD3 Multi-Mode Microplate reader (Molecular Devices, LLC, San Jose, Calif.). The degree of luminescence was dictated by the abundance of live cells.

PANC 10.05 = assay: as above; type: cell-based, human
Experimental: as §1

Row | Structure (SMILES) | IC50 (HCT 116 cells) | IC50 (PANC 05.04) | IC50 (PANC 10.05)
1 | COC(=O)C[C@@H]1C[C@@]2(CO2)[C@H](O)[C@@H](/C=C/C(C)=C/C[C@@H]2O[C@H](C)[C@H](NC(=O)/C=C\C(C)c3cc(OC)no3)C[C@@H]2C)O1 (stereo partly drawn) [Compound 5, Methyl 2-((3R, 5S, 7R, 8R)-8-hydroxy-7-((1E, 3E)-5-((2S, 3S, 5R, 6R)-5-((Z)-4-(3-methoxyisoxazol-5-yl)pent-2-enamido)-3,6-dimethyltetrahydro-2H-pyran-2-yl)-3-methylpenta-1,3-dienyl)-1,6-dioxaspiro[2.5]octan-5-yl)acetate] | 310 nM | – | –
2 | CC(=O)O[C@@H](C)/C=C\C(=O)N[C@@H]1C[C@H](C)[C@H](C/C=C(C)/C=C/[C@H]2O[C@H](CC(=O)O)C[C@@]3(CO3)[C@@H]2O)O[C@@H]1C [Thailanstatin A] | – | 3 nM | 4 nM
